These results are taken from patent US20210002689A1, “METHOD FOR DETECTING DIFFERENT PROPERTIES IN A MICROORGANISM POPULATION BY OPTICALLY INDUCED DIELECTROPHORETIC FORCE” (Chang Gung University, priority 2019, published 2021).

Test [1] concerns E. coli ATCC® 35218. The following applies: cited from earlier work.
For test [2], the system named is E. coli ATCC® 25922. Briefly: ODEP force analysis after subjecting to ampicillin. Format: cell-based, Escherichia coli. The following applies: ampicillin of gradually increased concentration (up to 16 μg/ml), cultured 1.5 hours, FIG. 5. The source says: (§1) Referring to FIG. 1 again, after E. coli ATCC® 35218 and E. coli ATCC® 25922 have been activated, they are made into solutions having bacteria for subsequent antibiotics processing. Steps of making solutions having bacteria are described in detail below: selecting a plurality of activated large E. coli strains; dissolving it in normal saline which is a solution of sodium chloride at 0.9% concentration; adjusting its turbidity to 0.5 McFarland to make the microorganism sample solution 10; in each solution having bacteria, adding different amounts of ampicillin antibiotics powder to make a solution having antibiotics concentration of 0 μg/ml, 4 μg/ml, 8 μg/ml or 16 μg/ml, and finally, culturing each solution of different antibiotics concentration in 5% carbon dioxide concentration and 37° C. for 1.5 hours to make the microorganism sample solution to be tested 14.
(§2) Referring to FIGS. 1 to 4 again, an injection pump is used to inject the microorganism sample solution to be tested 14 into the ODEP device 20 via the sample injection hole 221. Electrical properties (e.g., conduction or polarizability) differences are generated because E. coli ATCC® 35218 and E. coli ATCC® 25922 in the microorganism sample solution to be tested 14 have been subjected to ampicillin. […]

Test [3] relates to E. coli ATCC® 35218. In words: ODEP force analysis after subjecting to ampicillin. It is filed as cell-based, Escherichia coli. As to conditions: ampicillin 0, 4, 8 or 16 μg/ml, cultured 1.5 hours, FIG. 5.
Text: as §1, §2

For test [4], the system named is E. coli ATCC® 25922. The following applies: cited from earlier work.
Test [5] has as its system Staphylococcus aureus strains. In words: Vancomycin Etest. It is filed as cell-based. As to conditions: 125 clinical Staphylococcus aureus strains selected for PAP-AUC (35 hVISA, 90 VSSA); read-out: minimal inhibition concentration.
Protocol: Firstly, the microorganism sample solution 10 is cultured on a blood agar plate. Next, the microorganism sample solution 10 is cultured in 5% carbon dioxide concentration and 37° C. for 16-18 hours. After being cultured, a single strain group is taken from the blood agar plate and is subjected to a matrix-assisted laser desorption ionization time-of-flight (MALDI-TOF) for strains identification. With respect to selecting strains to be identified as Staphylococcus aureus strains, Vancomycin Etest is used in which 125 strains having a minimal inhibition concentration of 2-4 μg/mL are selected for PAP-AUC.

Converted amounts (≈) assume the structure as drawn.

For `CC1(C)S[C@@H]2[C@H](NC(=O)[C@H](N)c3ccccc3)C(=O)N2[C@H]1C(=O)O` [ampicillin], the minimal inhibition concentration entry is “greater than 32 μg/ml” in the test on E. coli ATCC® 35218 [1] and 2 to 8 µg/mL with E. coli ATCC® 25922 [4]. For the same molecule, the “force generated by light (ODEP force)” value in the test with E. coli ATCC® 25922 [2] is reported as 100 μm/sec; with E. coli ATCC® 35218 [3], 220-260 μm/sec.

In the case of `CN[C@H](CC(C)C)C(=O)N[C@H]1C(=O)N[C@@H](CC(N)=O)C(=O)N[C@H]2C(=O)N[C@H]3C(=O)N[C@H](C(=O)N[C@H](C(=O)O)c4cc(O)cc(O)c4-c4cc3ccc4O)[C@H](O)c3ccc(c(Cl)c3)Oc3cc2cc(c3O[C@@H]2O[C@H](CO)[C@@H](O)[C@H](O)[C@H]2O[C@H]2C[C@](C)(N)[C@H](O)[C@H](C)O2)Oc2ccc(cc2Cl)[C@H]1O` [Vancomycin], in test [5], the MIC was 2 to 4 µg/mL (≈ 1.38 to 2.76 µM).
